From PubChem BioAssay (NCI)
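GI50 marks 50% less growth. TGI is the concentration that stops growth completely.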

Key:
Assay in all cases: growth of human tumour cells (NCI), 384-well format
A549 NSCLC = tested on: A549 NSCLC
BT-549 breast = tested on: BT-549 breast
COLO 205 colon = tested on: COLO 205 colon
CAKI-1 renal = tested on: CAKI-1 renal
HCT-116 colon = tested on: HCT-116 colon
CCRF-CEM leukemia = tested on: CCRF-CEM leukemia
UACC-62 melanoma = tested on: UACC-62 melanoma
RXF 393 renal = tested on: RXF 393 renal
U251 glioblastoma = tested on: U251 glioblastoma
SW-620 colon = tested on: SW-620 colon
SNB-19 CNS = tested on: SNB-19 CNS
786-0 renal = tested on: 786-0 renal
NCI-H322M lung = tested on: NCI-H322M lung
SN12C renal = tested on: SN12C renal
NCI/ADR-RES ovarian = tested on: NCI/ADR-RES ovarian
KM12 colon = tested on: KM12 colon
SR leukemia = tested on: SR leukemia
T-47D breast = tested on: T-47D breast
OVCAR-4 ovarian = tested on: OVCAR-4 ovarian
IGROV1 ovarian = tested on: IGROV1 ovarian
MALME-3M melanoma = tested on: MALME-3M melanoma
HT29 colon = tested on: HT29 colon
UACC-257 melanoma = tested on: UACC-257 melanoma
ACHN renal = tested on: ACHN renal
EKVX NSCLC = tested on: EKVX NSCLC
TK-10 renal = tested on: TK-10 renal
MDA-MB-231 breast = tested on: MDA-MB-231 breast
SK-MEL-28 melanoma = tested on: SK-MEL-28 melanoma
DU-145 prostate = tested on: DU-145 prostate
HOP-92 NSCLC = tested on: HOP-92 NSCLC
LOX IMVI melanoma = tested on: LOX IMVI melanoma
HCC-2998 colon = tested on: HCC-2998 colon
NCI-H226 lung = tested on: NCI-H226 lung
UO-31 renal = tested on: UO-31 renal
SF-295 CNS = tested on: SF-295 CNS
NCI-H522 lung = tested on: NCI-H522 lung
K-562 leukemia = tested on: K-562 leukemia
HL-60(TB) leukemia = tested on: HL-60(TB) leukemia
MDA-MB-468 breast = tested on: MDA-MB-468 breast
MDA-MB-435 melanoma = tested on: MDA-MB-435 melanoma
HOP-62 NSCLC = tested on: HOP-62 NSCLC
MOLT-4 leukemia = tested on: MOLT-4 leukemia
A498 renal = tested on: A498 renal
PC-3 prostate = tested on: PC-3 prostate
SF-268 CNS = tested on: SF-268 CNS
NCI-H23 lung = tested on: NCI-H23 lung
SK-OV-3 ovarian = tested on: SK-OV-3 ovarian
SF-539 CNS = tested on: SF-539 CNS
HS 578T breast = tested on: HS 578T breast
NCI-H460 NSCLC = tested on: NCI-H460 NSCLC
M14 melanoma = tested on: M14 melanoma
RPMI-8226 leukemia = tested on: RPMI-8226 leukemia
MCF7 breast = tested on: MCF7 breast
HCT-15 colon = tested on: HCT-15 colon
SK-MEL-5 melanoma = tested on: SK-MEL-5 melanoma
OVCAR-3 ovarian = tested on: OVCAR-3 ovarian
OVCAR-8 ovarian = tested on: OVCAR-8 ovarian
SNB-75 CNS = tested on: SNB-75 CNS

O=C(O)C1(C(=O)O)CCC1.[NH2-].[NH2-].[Pt+2]
GI50 (A549 NSCLC): < 10 nM
TGI (A549 NSCLC): < 0.01 µM
GI50 (BT-549 breast): < 10 nM
TGI (BT-549 breast): < 0.01 µM
GI50 (COLO 205 colon): < 10 nM
TGI (COLO 205 colon): < 0.01 µM
GI50 (CAKI-1 renal): < 10 nM
TGI (CAKI-1 renal): < 0.01 µM
GI50 (HCT-116 colon): < 10 nM
TGI (HCT-116 colon): < 0.01 µM

Cc1nc(-c2cn3c(n2)-c2ccc(-c4cnn(C(C)(C)C(N)=O)c4)cc2OCC3)n(C(C)C)n1
GI50 (CCRF-CEM leukemia): 343 nM
TGI (CCRF-CEM leukemia): 13.7 µM
GI50 (UACC-62 melanoma): 710 nM
TGI (UACC-62 melanoma): 7.5 µM
GI50 (RXF 393 renal): 1990 nM
TGI (RXF 393 renal): 11.3 µM
GI50 (A549 NSCLC): 1430 nM
TGI (A549 NSCLC): 14.7 µM
GI50 (U251 glioblastoma): 3.56 µM
TGI (U251 glioblastoma): > 100 µM
GI50 (SW-620 colon): 12.5 µM
TGI (SW-620 colon): > 100 µM
GI50 (SNB-19 CNS): 13.8 µM
TGI (SNB-19 CNS): > 100 µM
GI50 ([…]-0 renal): 2600 nM
TGI (786-0 renal): 87.3 µM
GI50 (NCI-H322M lung): 312 nM
TGI (NCI-H322M lung): 14.2 µM
GI50 (SN12C renal): 270 nM
TGI (SN12C renal): > 100 µM
GI50 (NCI/ADR-RES ovarian): 13.2 µM
TGI (NCI/ADR-RES ovarian): 52.7 µM
GI50 (KM12 colon): 3.72 µM
TGI (KM12 colon): 17 µM
GI50 (SR leukemia): 785 nM
TGI (SR leukemia): 2530 nM
GI50 (BT-549 breast): 1670 nM
TGI (BT-549 breast): 19.9 µM
GI50 (T-47D breast): < 10 nM
TGI (T-47D breast): 39.9 nM
GI50 (OVCAR-4 ovarian): 15.2 µM
TGI (OVCAR-4 ovarian): 93.7 µM
GI50 (COLO 205 colon): 396 nM
TGI (COLO 205 colon): 25.4 µM
GI50 (IGROV1 ovarian): 12.5 nM
TGI (IGROV1 ovarian): 54.1 nM
GI50 (MALME-3M melanoma): 164 nM
TGI (MALME-3M melanoma): 4.21 µM
GI50 (HT29 colon): 85 nM
TGI (HT29 colon): 16.6 µM
GI50 (UACC-257 melanoma): 7.34 µM
TGI (UACC-257 melanoma): 40.7 µM
GI50 (ACHN renal): 1360 nM
TGI (ACHN renal): > 100 µM
GI50 (EKVX NSCLC): 756 nM
TGI (EKVX NSCLC): 15.4 µM
GI50 (TK-10 renal): 387 nM
TGI (TK-10 renal): 19.2 µM
GI50 (MDA-MB-231 breast): 5.79 µM
TGI (MDA-MB-231 breast): > 100 µM
GI50 (SK-MEL-28 melanoma): 484 nM
TGI (SK-MEL-28 melanoma): > 100 µM
GI50 (DU-145 prostate): 2160 nM
TGI (DU-145 prostate): 17.8 µM
GI50 (HOP-92 NSCLC): 226 nM
TGI (HOP-92 NSCLC): 29.9 µM
GI50 (LOX IMVI melanoma): 1990 nM
TGI (LOX IMVI melanoma): 15.4 µM
GI50 (HCC-2998 colon): 831 nM
TGI (HCC-2998 colon): 14 µM
GI50 (CAKI-1 renal): 342 nM
TGI (CAKI-1 renal): 31.8 µM
GI50 (HCT-116 colon): 1920 nM
TGI (HCT-116 colon): 18.3 µM
GI50 (NCI-H226 lung): 2820 nM
TGI (NCI-H226 lung): 41 µM
GI50 (UO-31 renal): 848 nM
TGI (UO-31 renal): > 100 µM
GI50 (SF-295 CNS): 950 nM
TGI (SF-295 CNS): 9 µM
GI50 (NCI-H522 lung): 3.56 µM
TGI (NCI-H522 lung): 27.3 µM
GI50 (K-562 leukemia): 12.9 µM
TGI (K-562 leukemia): 84.8 µM
GI50 (HL-60(TB) leukemia): < 10 nM
TGI (HL-60(TB) leukemia): 115 nM
GI50 (MDA-MB-468 breast): 147 nM
TGI (MDA-MB-468 breast): 1340 nM
GI50 (MDA-MB-435 melanoma): 6.33 µM
TGI (MDA-MB-435 melanoma): 53.2 µM
GI50 (HOP-62 NSCLC): 5.99 µM
TGI (HOP-62 NSCLC): 91.3 µM
GI50 (MOLT-4 leukemia): 74.6 nM
TGI (MOLT-4 leukemia): 1120 nM
GI50 (A498 renal): 1960 nM
TGI (A498 renal): 12.4 µM
GI50 (PC-3 prostate): 396 nM
TGI (PC-3 prostate): 12.2 µM
GI50 (SF-268 CNS): 3.31 µM
TGI (SF-268 CNS): 29.5 µM
GI50 (NCI-H23 lung): 11.3 µM
TGI (NCI-H23 lung): 50.5 µM
GI50 (SK-OV-3 ovarian): 29.1 nM
TGI (SK-OV-3 ovarian): 1950 nM
GI50 (SF-539 CNS): 1090 nM
TGI (SF-539 CNS): 20.2 µM
GI50 (HS 578T breast): 567 nM
TGI (HS 578T breast): 12.5 µM
GI50 (NCI-H460 NSCLC): 134 nM
TGI (NCI-H460 NSCLC): 11.4 µM
GI50 (M14 melanoma): 7.41 µM
TGI (M14 melanoma): 32.1 µM
GI50 (RPMI-8226 leukemia): 3.21 µM
TGI (RPMI-8226 leukemia): 13.3 µM
GI50 (MCF7 breast): 15.2 nM
TGI (MCF7 breast): 15.1 µM
GI50 (HCT-15 colon): 1590 nM
TGI (HCT-15 colon): 23.6 µM
GI50 (SK-MEL-5 melanoma): 1260 nM
TGI (SK-MEL-5 melanoma): 9.2 µM
GI50 (OVCAR-3 ovarian): 398 nM
TGI (OVCAR-3 ovarian): 9.21 µM
GI50 (OVCAR-8 ovarian): 3.01 µM
TGI (OVCAR-8 ovarian): 84 µM
GI50 (SNB-75 CNS): 221 nM
TGI (SNB-75 CNS): 15.3 µM
